Consider 23 compounds from patent publication US11236047B2 (ASTEX THERAPEUTICS LIMITED, priority 2017, dated 2022).

Molecules are shown by their SMILES. Read-outs that look alike come from different tables or passages of the source.

The target of one test is MDM2-p53 interaction (Homo sapiens (Human), UniProt Q00987).
A further test deals with SJSA-1 cells. Nature of the test: Protocol B: SJSA-1 CellTiter-Glo luminescent cell viability assay.
The next test has as its system SN40R2 cells. Kind of test: Protocol B: SN40R2 CellTiter-Glo luminescent cell viability assay. The settings on record: for IC50: read-out: SN40R2 IC50 (μM) (Protocol B); for inhibition at 10 µM: read-out: SN40R2 % inhibition at 10. (In general: In ATP-based viability assays light output follows the ATP content of the culture.)
[1] abbreviates: read-out: SJSA1 IC50 (μM) (Protocol B), SJSA-1, Protocol B.
The mark [2] stands for this setting: Homo sapiens, SJSA-1, read-out: SJSA1 IC50 (μM), Protocol B, SJSA-1.
[3] abbreviates: read-out: SJSA1 IC50, Protocol B, SJSA-1.
[4] abbreviates: Homo sapiens, SJSA-1, read-out: SJSA1 IC50 (μM) (Protocol B), SJSA-1, Protocol B.

Chain of MDM2-p53 interaction (Q00987 whole entry): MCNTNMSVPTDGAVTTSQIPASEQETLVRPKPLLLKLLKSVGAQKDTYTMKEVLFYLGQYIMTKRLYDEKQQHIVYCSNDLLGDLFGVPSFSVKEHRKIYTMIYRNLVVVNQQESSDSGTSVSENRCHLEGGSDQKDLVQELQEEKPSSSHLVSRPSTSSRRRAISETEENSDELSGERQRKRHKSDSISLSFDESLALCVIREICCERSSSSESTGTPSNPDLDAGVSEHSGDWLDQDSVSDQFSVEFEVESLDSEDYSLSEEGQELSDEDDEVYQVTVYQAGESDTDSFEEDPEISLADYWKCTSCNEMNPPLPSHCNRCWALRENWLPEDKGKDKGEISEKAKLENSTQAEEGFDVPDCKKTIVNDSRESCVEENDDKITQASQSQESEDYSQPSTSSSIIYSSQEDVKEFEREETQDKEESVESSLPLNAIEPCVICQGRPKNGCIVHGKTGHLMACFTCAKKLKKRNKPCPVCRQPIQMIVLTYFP
Protocol for SJSA-1 cells: Protocol B: SJSA-1 and SN40R2 Assays
(§1) The CellTiter-Glo® Luminescent Cell Viability Assay is a homogeneous method to determine the number of viable cells in culture based on quantitation of the ATP present, which signals the presence of metabolically active cells. […] 100 μl of CTG reagent (Promega #G7573) was added to all wells and luminescence was measured on the topcount. The EC50 values were determined from a sigmoidal 4 parameter curve fit using XLfit in conjunction with Activity Base (IDBS; Guildford, Surrey, UK).
Protocol for SN40R2 cells: Protocol B: SJSA-1 and SN40R2 Assays
as §1

For `CO[C@]1(c2ccc(Cl)cc2)c2ccc(C(C)(O)C(=O)NCCN(C)C)cc2C(=O)N1Cc1ccc(Cl)cn1` (single isomer, unassigned) [Example 149], the “MDM2 % at stated concentration” value at MDM2-p53 interaction (at 1.0 μM) turned out to be 53%@1.0.
On to `CO[C@]1(c2ccc(Cl)cc2)c2ccc(C(C)(O)C(=O)NCCN(C)C)cc2C(=O)N1Cc1ccc(Cl)cn1` (single isomer, unassigned) [Example 150], for which, at MDM2-p53 interaction (at 0.10 μM), the “MDM2 % at stated concentration” value is reported as 49%@0.10.
On to `CO[C@]1(c2ccc(Cl)cc2)c2c(F)cc(C(C)(O)c3nccs3)cc2C(=O)N1Cc1ccc(Cl)cn1` (single isomer, unassigned) [Example 165], for which the IC50 – broadly, the midpoint of a concentration-inhibition curve – worked out at 1.4 µM with SJSA-1 cells (setting [1]) and 13 µM in the test with SN40R2 cells.
`CCC(O)(c1cc(F)c2c(c1)C(=O)N(Cc1ccc(C#N)cn1)[C@@]2(OCCO)c1ccc(Cl)cc1)c1cscn1` (single isomer, unassigned) [Example 333]: the IC50 with SJSA-1 cells (setting [2]) came out at 0.22 µM. Further, the inhibition – broadly, the relative decrease from the control value, in per cent – at 10 µM in the test with SN40R2 cells was determined as 5%.
In the case of `CCC(O)(c1cc(F)c2c(c1)C(=O)N(Cc1ccc(C#N)cn1)[C@@]2(OCC1(CO)CC1)c1ccc(Cl)cc1)c1cn(C)cn1` (single isomer, unassigned) [Example 338], in the test on SJSA-1 cells (setting [3]), the IC50 came out at 1.5 µM. Moreover, in the test on SN40R2 cells, the inhibition at 10 µM worked out at 6%.
As for `CCC(O)(CN1CCN(C)CC1)c1cc(F)c2c(c1)C(=O)N(Cc1ncc(Cl)cn1)[C@@]2(O[C@H]1CCOC1)c1ccc(Cl)cc1` (single isomer, unassigned) [Example 522], the IC50 in the test on SJSA-1 cells (setting [3]) stood at 0.048 µM. The inhibition at 10 µM in the test on SN40R2 cells was determined as 24%.
For `CCC(O)(CN1CCN(C)CC1)c1cc(F)c2c(c1)C(=O)N(Cc1ncc(Cl)cn1)[C@@]2(OCC1(C#N)CC1)c1ccc(Cl)cc1` (single isomer, unassigned) [Example 534], in that order: 0.7 µM and 44%.
Regarding `[2H]C([2H])(O)C1(C([2H])([2H])O[C@]2(c3ccc(Cl)cc3)c3c(F)cc(C(C)(O)CC)cc3C(=O)N2Cc2ncc(C#N)cn2)CC1` (single isomer, unassigned) [Example 576], the IC50 in the test on SJSA-1 cells (setting [2]) stood at 0.14 µM. Besides, the inhibition at 10 µM with SN40R2 cells is 5%.
On to `CO[C@]1(c2ccc(Cl)cc2)c2c(F)cc(C(C)(O)c3cn(C)c(C)n3)cc2C(=O)N1Cc1ccc(Cl)cn1` (stereo partly drawn) [Example 162, (3R)-3-(4-Chlorophenyl)-2-[(5-chloropyridin-2-yl)methyl]-6-[1-(1,2-dimethyl-1H-imidazol-4-yl)-1-hydroxyethyl]-4-fluoro-3-methoxy-2,3-dihydro-1H-isoindol-1-one], for which the concentration for half-maximal inhibition (IC50) in the test with SJSA-1 cells (setting [1]) turned out to be 0.22 µM; with SN40R2 cells it was 13 µM.
In the case of `CO[C@]1(c2ccc(Cl)cc2)c2c(F)cc(C(C)(O)C3CN(C)C3)cc2C(=O)N1Cc1ccc(Cl)cn1` (stereo partly drawn) [Example 307, (3R)-3-(4-chlorophenyl)-2-[(5-chloropyridin-2-yl)methyl]-4-fluoro-6-[1-hydroxy-1-(1-methylazetidin-3-yl)ethyl]-3-methoxy-2,3-dihydro-1H-isoindol-1-one], the concentration for half-maximal inhibition (IC50) in the test on SJSA-1 cells (setting [4]) was 1.9 µM; in the test on SN40R2 cells, 11 µM.
For `Cn1cc(C(C)(O)c2cc(F)c3c(c2)C(=O)N(Cc2ccc(Cl)cn2)[C@@]3(OCC2(CO)CC2)c2ccc(Cl)cc2)cn1` (stereo partly drawn) [Example 346, (3R)-3-(4-chlorophenyl)-2-[(5-chloropyridin-2-yl)methyl]-4-fluoro-6-[1-hydroxy-1-(1-methyl-1H-pyrazol-4-yl)ethyl]-3-{[1-(hydroxymethyl)cyclopropyl]methoxy}-2,3-dihydro-1H-isoindol-1-one], in that order: 0.012 µM and 12 µM.
Take `CC(O)(c1cc(F)c2c(c1)C(=O)N(Cc1ncc(Cl)cn1)[C@@]2(OCC1(CO)CC1)c1ccc(Cl)cc1)[C@H]1CC[C@H](O)CC1` (stereo partly drawn) [Example 401, (3R)-3-(4-chlorophenyl)-2-[(5-chloropyrimidin-2-yl)methyl]-4-fluoro-6-{1-hydroxy-1-[trans-4-hydroxycyclohexyl]ethyl}-3-{[1-(hydroxymethyl)cyclopropyl]methoxy}-2,3-dihydro-1H-isoindol-1-one]: in the test on SJSA-1 cells (setting [3]), the half-inhibitory concentration (IC50) stood at 0.0098 µM. Further, the inhibition at 10 µM in the test on SN40R2 cells is 6%.
Take `CCC(O)(c1cc(F)c2c(c1)C(=O)N(Cc1ccc(C#N)cn1)[C@@]2(OCC1(F)COC1)c1ccc(Cl)cc1)c1cn(C)cn1` (stereo partly drawn) [Example 435, 6-{[(1R)-1-(4-chlorophenyl)-7-fluoro-1-[(3-fluorooxetan-3-yl)methoxy]-5-[1-hydroxy-1-(1-methyl-1H-imidazol-4-yl)propyl]-3-oxo-2,3-dihydro-1H-isoindol-2-yl]methyl}pyridine-3-carbonitrile]: in the test with SJSA-1 cells (setting [2]), the half-inhibitory concentration (IC50) came out at 0.015 µM. Moreover, in the test on SN40R2 cells, the inhibition at 10 µM came out at 0%.
On to `[2H]C([2H])(O)C1(C([2H])([2H])O[C@]2(c3ccc(Cl)cc3)c3c(F)cc(C(O)(CC)c4cn(C)cn4)cc3C(=O)N2Cc2ccc(C#N)cn2)CC1` (stereo partly drawn) [Example 439, 6-{[(1R)-1-(4-chlorophenyl)-7-fluoro-1-({1-[hydroxy(^2H2)methyl]cyclopropyl}(^2H2)methoxy)-5-[1-hydroxy-1-(1-methyl-1H-imidazol-4-yl)propyl]-3-oxo-2,3-dihydro-1H-isoindol-2-yl]methyl}pyridine-3-carbonitrile], for which, in the test with SJSA-1 cells (setting [3]), the IC50 is 0.03 µM. Also, in the test on SN40R2 cells, the inhibition at 10 µM came to 3%.
For the compound `[2H]C([2H])(O)C1(C([2H])([2H])O[C@]2(c3ccc(Cl)cc3)c3c(F)cc(C(C)(C)C4(F)CCOCC4)cc3C(=O)N2Cc2ncc(Cl)cn2)CC1` [Example 447, (3R)-3-(4-Chlorophenyl)-2-[(5-chloropyrimidin-2-yl)methyl]-4-fluoro-6-[1-(4-fluorooxan-4-yl)-1-hydroxyethyl]-3-({1-[hydroxy(^2H2)methyl]cyclopropyl}(^2H2)methoxy)-2,3-dihydro-1H-isoindol-1-one], in the test on SJSA-1 cells (setting [2]), the IC50 was 0.011 µM. Besides, the inhibition at 10 µM with SN40R2 cells was found to be 10%.
In the case of `CCC(O)(c1cc(F)c2c(c1)C(=O)N(Cc1ncc(Cl)cn1)[C@@]2(O[C@H]1C[C@@H](O)C1)c1ccc(Cl)cc1)c1cn(C)cn1` (stereo partly drawn) [Example 464, (3R)-3-(4-chlorophenyl)-2-[(5-chloropyrimidin-2-yl)methyl]-4-fluoro-6-[1-hydroxy-1-(1-methyl-1H-imidazol-4-yl)propyl]-3-[cis-3-hydroxycyclobutoxy]-2,3-dihydro-1H-isoindol-1-one], the IC50 in the test on SJSA-1 cells (setting [2]) was determined as 0.18 µM. In addition, in the test on SN40R2 cells, the inhibition at 10 µM worked out at 46%.
For `Cn1cnc(C(C)(O)c2cc(F)c3c(c2)C(=O)N(Cc2ncc(C#N)cn2)[C@@]3(OCC2(F)COC2)c2ccc(Cl)cc2)c1` (stereo partly drawn) [Example 468, 2-{[(1R)-1-(4-chlorophenyl)-7-fluoro-1-[(3-fluorooxetan-3-yl)methoxy]-5-[1-hydroxy-1-(1-methyl-1H-imidazol-4-yl)ethyl]-3-oxo-2,3-dihydro-1H-isoindol-2-yl]methyl}pyrimidine-5-carbonitrile], in that order: 0.48 µM and 2%.
Take `CCC(O)(c1cc(F)c2c(c1)C(=O)N(Cc1ncc(C#N)cn1)[C@@]2(OCC1(F)COC1)c1ccc(Cl)cc1)c1cn(C)cn1` (stereo partly drawn) [Example 470, 2-{[(1R)-1-(4-chlorophenyl)-7-fluoro-1-[(3-fluorooxetan-3-yl)methoxy]-5-[1-hydroxy-1-(1-methyl-1H-imidazol-4-yl)propyl]-3-oxo-2,3-dihydro-1H-isoindol-2-yl]methyl}pyrimidine-5-carbonitrile]: the IC50 in the test on SJSA-1 cells (setting [3]) came out at 0.1 µM. For the same compound, in the test with SN40R2 cells, the inhibition at 10 µM was determined as 3%.
For `CCC(O)(c1cc(F)c2c(c1)C(=O)N(Cc1ncc(C#N)cn1)[C@@]2(O[C@H]1CCOC1)c1ccc(Cl)cc1)c1ccn(C)n1` (stereo partly drawn) [Example 490, 2-{[(1R)-1-(4-chlorophenyl)-7-fluoro-5-[1-hydroxy-1-(1-methyl-1H-pyrazol-3-yl)propyl]-3-oxo-1-[(3S)-oxolan-3-yloxy]-2,3-dihydro-1H-isoindol-2-yl]methyl}pyrimidine-5-carbonitrile], in that order: 0.27 µM and 0%.
For the compound `CC[C@@](O)(c1cc(F)c2c(c1)C(=O)N(Cc1ncc(Cl)cn1)[C@@]2(OCCO)c1ccc(Cl)cc1)C1(F)CCOCC1` [Example 501, (3R)-3-(4-chlorophenyl)-2-[(5-chloropyrimidin-2-yl)methyl]-4-fluoro-6-[(1R)-1-(4-fluorooxan-4-yl)-1-hydroxypropyl]-3-(2-hydroxyethoxy)-2,3-dihydro-1H-isoindol-1-one], in the test on SJSA-1 cells (setting [2]), the half-inhibitory concentration (IC50) came out at 0.022 µM. In the test with SN40R2 cells (read-out: SN40R2 % inhibition at 3), the inhibition at 3 µM worked out at 8%.
Turning to `CC[C@@](O)(c1cc(F)c2c(c1)C(=O)N(Cc1ncc(C#N)cn1)[C@@]2(OCCO)c1ccc(Cl)cc1)C1(F)CCOCC1` [Example 509, 2-{[(1R)-1-(4-chlorophenyl)-7-fluoro-5-[(1R)-1-(4-fluorooxan-4-yl)-1-hydroxypropyl]-1-(2-hydroxyethoxy)-3-oxo-2,3-dihydro-1H-isoindol-2-yl]methyl}pyrimidine-5-carbonitrile], the IC50 in the test on SJSA-1 cells (setting [2]) is 0.042 µM. Besides, the inhibition at 10 µM with SN40R2 cells came to 6%.
For `CCC(O)(c1cc(F)c2c(c1)C(=O)N(Cc1ncc(C#N)cn1)[C@@]2(OC[C@@H](C)O)c1ccc(Cl)cc1)[C@H]1CC[C@H](O)CC1` (stereo partly drawn) [Example 512, 2-{[(1R)-1-(4-chlorophenyl)-7-fluoro-5-{1-hydroxy-1-[trans-4-hydroxycyclohexyl]propyl}-1-[(2R)-2-hydroxypropoxy]-3-oxo-2,3-dihydro-1H-isoindol-2-yl]methyl}pyrimidine-5-carbonitrile], in that order: 0.025 µM and 5%.
For `CC(O)(c1cc(F)c2c(c1)C(=O)N(Cc1ncc(Cl)cn1)[C@@]2(OCCO)c1ccc(Cl)cc1)C1(F)CCOCC1` (stereo partly drawn) [Example 578, (3R)-3-(4-chlorophenyl)-2-[(5-chloropyrimidin-2-yl)methyl]-4-fluoro-6-[1-(4-fluorooxan-4-yl)-1-hydroxyethyl]-3-(2-hydroxyethoxy)-2,3-dihydro-1H-isoindol-1-one], in that order: 0.12 µM and 4%.
